The values that follow come from ChEMBL document CHEMBL3763154, “Dispirocyclopropyldehydrocostus lactone selectively inhibits acute myelogenous leukemia cells” (Bioorg Med Chem Lett, 2016).

The nature of data set [1]: Cytotoxicity against human K562/A02 cells after 72 hrs by MTT assay. The format is functional, cell-based. The settings on record: K562/A02, 72 h.
Data set [2] in a line: Cytotoxicity against human KG1a cells after 72 hrs by MTT assay. Type of data set: functional, cell-based. The conditions noted are these: KG-1a.
A short description of data set [3]: Selectivity index, ratio IC50 for human KG1a cells to IC50 for human HL60 cells. Type of data set: functional.
A further data set deals with HL-60. Nature of the data set: Selectivity index, ratio IC50 for human […] cells. Type of data set: functional.
Data set [4] in a line: Cytotoxicity against human HL60/ADR cells after 72 hrs by MTT assay. Type of data set: functional, cell-based.
Data set [5] is described as follows: Cytotoxicity against human HL60 cells after 72 hrs by MTT assay. Type of data set: functional, cell-based. The conditions noted are these: HL-60, 72 h.
The test system of data set [6] is KG-1a. Nature of the data set: Antitumor activity against human KG1a cells xenografted in SCID mice assessed as reduction in tumor weight at 50 mg/kg, po administered every other day for 7 times measured after 1 month. Type of data set: functional, organism-based. On the technique in general: A xenograft is tissue or cells of one species grown in another, often human tumour cells in immunodeficient mice.

A further data set deals with Mus musculus. Nature of the data set: Toxicity in SCID mouse xenografted with KG1a cells assessed as effect on body weight at 50 mg/kg, po administered every other day for 7 times. The conditions noted are these: in vivo. The format is organism-based.
The test system of data set [7] is KG-1a. The data set is described as follows: Antitumor activity against human KG1a cells xenografted in SCID mice assessed as inhibition of tumor growth at 50 mg/kg, po administered every other day for 7 times. Type of data set: functional, organism-based.
For the next data set, the system named is K562. The data set is described as follows: Cytotoxicity against human K562 cells after 72 hrs by MTT assay. The format is functional, cell-based. The settings on record: K562, 72 h.
Data set [8] can be described thus: Cytotoxicity against human CD34-positive leukemia stem/progenitor AML cells assessed as cell viability at 5 uM after 18 hrs by annexin staining based assay. Type of data set: functional. The settings on record: read-out: Activity.
Data set [9] relates to KG-1a. The data set is described as follows: Induction of apoptosis in human KG1a cells assessed as viable cells at 20 uM after 24 hrs by Annexin V-FITC/PI staining based flow cytometry (Rvb=95.1%). The format is functional. The conditions noted are these: read-out: Activity. Background: In flow cytometry, cells or beads pass a laser one at a time.
For data set [10], the system named is KG-1a. Nature of the data set: Induction of apoptosis in human KG1a cells assessed as necrotic cells at 5 uM after 24 hrs by Annexin V-FITC/PI staining based flow cytometry (Rvb=0.227%). The format is functional.
Data set [11] deals with KG-1a. The data set is described as follows: Induction of apoptosis in human KG1a cells assessed as late apoptotic cells at 50 uM after 24 hrs by Annexin V-FITC/PI staining based flow cytometry (Rvb=2.30%). The format is functional.
In data set [12] the test system is KG-1a. The data set is described as follows: Induction of apoptosis in human KG1a cells assessed as late apoptotic cells at 10 uM after 24 hrs by Annexin V-FITC/PI staining based flow cytometry (Rvb=2.30%). The format is functional.
For data set [13], the system named is KG-1a. The data set is described as follows: Induction of apoptosis in human KG1a cells assessed as viable cells at 50 uM after 24 hrs by Annexin V-FITC/PI staining based flow cytometry (Rvb=95.1%). The format is functional. The conditions noted are these: read-out: Activity.
Data set [14] can be described thus: Cytotoxicity against human AML cells assessed as cell viability at 5 uM after 18 hrs by annexin staining based assay. Type of data set: functional. The settings on record: read-out: Activity.
In data set [15] the test system is KG-1a. The data set is described as follows: Induction of apoptosis in human KG1a cells assessed as early apoptotic cells at 20 uM after 24 hrs by Annexin V-FITC/PI staining based flow cytometry (Rvb=2.40%). Type of data set: functional.
Data set [16] has as its system KG-1a. The data set is described as follows: Induction of apoptosis in human KG1a cells assessed as necrotic cells at 10 uM after 24 hrs by Annexin V-FITC/PI staining based flow cytometry (Rvb=0.227%). Type of data set: functional.
Data set [17] can be described thus: Cytotoxicity against human AML cells assessed as cell viability at 10 uM after 18 hrs by annexin staining based assay. The format is functional. The settings on record: read-out: Activity.
Data set [18] can be described thus: Induction of apoptosis in human KG1a cells assessed as upregulation of caspase 9 cleavage at 2.5 to 10 uM after 24 hrs by Western blot analysis. Type of data set: functional, cell-based. The conditions noted are these: KG-1a. (Immunoblotting shows a protein as a band on a membrane.)
In data set [19] the test system is KG-1a. The data set is described as follows: Induction of apoptosis in human KG1a cells assessed as early apoptotic cells at 50 uM after 24 hrs by Annexin V-FITC/PI staining based flow cytometry (Rvb=2.40%). The format is functional.
The nature of data set [20]: Cytotoxicity against human CD38 deficient CD34-positive leukemia stem/progenitor AML cells assessed as cell viability at 10 uM after 18 hrs by annexin staining based assay. Type of data set: functional. The settings on record: read-out: Activity.
For data set [21], the system named is KG-1a. Nature of the data set: Induction of apoptosis in human KG1a cells assessed as late apoptotic cells at 20 uM after 24 hrs by Annexin V-FITC/PI staining based flow cytometry (Rvb=2.30%). The format is functional.
A short description of data set [22]: Aqueous solubility of compound. The format is physicochemical. The conditions noted are these: buffer.
Data set [23] deals with KG-1a. Nature of the data set: Induction of apoptosis in human KG1a cells assessed as early apoptotic cells at 10 uM after 24 hrs by Annexin V-FITC/PI staining based flow cytometry (Rvb=2.40%). Type of data set: functional.
The nature of data set [24]: Induction of apoptosis in human KG1a cells assessed as upregulation of caspase 3 cleavage at 2.5 to 10 uM after 24 hrs by Western blot analysis. The conditions noted are these: KG-1a. The format is functional, cell-based.
Data set [25] concerns KG-1a. Nature of the data set: Induction of apoptosis in human KG1a cells assessed as viable cells at 10 uM after 24 hrs by Annexin V-FITC/PI staining based flow cytometry (Rvb=95.1%). Type of data set: functional. The conditions noted are these: read-out: Activity.
Data set [26] in a line: Cytotoxicity against human hematopoietic stem cells after 24 hrs by MTT assay. Type of data set: cell-based.
Data set [27] deals with KG-1a. The data set is described as follows: Induction of apoptosis in human KG1a cells assessed as early apoptotic cells at 5 uM after 24 hrs by Annexin V-FITC/PI staining based flow cytometry (Rvb=2.40%). Type of data set: functional.
Data set [28] relates to KG-1a. The data set is described as follows: Induction of apoptosis in human KG1a cells assessed as late apoptotic cells at 5 uM after 24 hrs by Annexin V-FITC/PI staining based flow cytometry (Rvb=2.30%). The format is functional.
Data set [29] relates to KG-1a. Nature of the data set: Induction of apoptosis in human KG1a cells assessed as necrotic cells at 50 uM after 24 hrs by Annexin V-FITC/PI staining based flow cytometry (Rvb=0.227%). The format is functional.
Data set [30] deals with KG-1a. The data set is described as follows: Induction of apoptosis in human KG1a cells assessed as viable cells at 5 uM after 24 hrs by Annexin V-FITC/PI staining based flow cytometry (Rvb=95.1%). The format is functional. The conditions noted are these: read-out: Activity.
A short description of data set [31]: Cytotoxicity against human CD34-positive leukemia stem/progenitor AML cells assessed as cell viability at 10 uM after 18 hrs by annexin staining based assay. The format is functional. The conditions noted are these: read-out: Activity.
A short description of data set [32]: Cytotoxicity against human CD38 deficient CD34-positive leukemia stem/progenitor AML cells assessed as cell viability at 5 uM after 18 hrs by annexin staining based assay. The format is functional. The conditions noted are these: read-out: Activity.
A short description of data set [33]: Induction of apoptosis in human KG1a cells assessed as upregulation of Bax expression at 2.5 to 10 uM after 24 hrs by Western blot analysis. The format is functional, cell-based. The conditions noted are these: KG-1a.
Data set [34] has as its system KG-1a. Nature of the data set: Induction of apoptosis in human KG1a cells assessed as necrotic cells at 20 uM after 24 hrs by Annexin V-FITC/PI staining based flow cytometry (Rvb=0.227%). Type of data set: functional.
Data set [35] can be described thus: Induction of apoptosis in human KG1a cells assessed as upregulation of PARP cleavage at 2.5 to 10 uM after 24 hrs by Western blot analysis. Type of data set: functional, cell-based. The conditions noted are these: KG-1a.

Activity calls are given as the source filed them. No cut-off for these calls is given here.

For orientation: IC50 means the point on the concentration scale where inhibition reaches its midpoint. A higher IC50 goes with weaker potency in that assay. Regarding `COc1cccc2c1C(=O)c1c(O)c3c(c(O)c1C2=O)C[C@@](O)(C(=O)CO)C[C@@H]3O[C@H]1C[C@H](N)[C@H](O)[C@H](C)O1.Cl` [DOXORUBICIN HYDROCHLORIDE], the IC50 in data set [1] was 10.6 µM; in data set [2], 0.82 µM; in [4], 4.89 µM; in [5] it was 0.016 µM. Besides, the “Ratio IC50” value in data set [3] is 50; in the data set on HL-60, 300.
Regarding `CN(C)C[C@@H]1C(=O)O[C@H]2[C@H]1CCC1(CC1)[C@@H]1CCC3(CC3)[C@H]21.O=C(O)/C=C/C(=O)O`, the result in the data set with KG-1a [6] was Active. Also, the Activity result with Mus musculus is listed as “Non-toxic”. Also, the TGI entry in the data set on KG-1a [7] is “Active”.
As for `C=C1CC[C@H]2C(=C)CC[C@H]3C(=C)C(=O)O[C@@H]3[C@@H]12` [DEHYDROCOSTUSLACTONE], the IC50 in [1] amounted to 6.6 µM; in [2] it was 10.5 µM; with K562 it was 5.3 µM; in data set [4], 5.1 µM; in data set [5] it was 3.7 µM.
On to `C=C1C(=O)O[C@@H]2[C@@H]3[C@@H](CCC34CC4)C3(CC[C@@H]12)CC3`, for which the IC50 in data set [1] is 7.7 µM; in data set [2], 7.6 µM; in the data set on K562, 7 µM; in data set [4], 6.7 µM; in data set [26], greater than 50 µM; in [5] it was 5.7 µM. Moreover, the viability at 5 µM in data set [8] was 42.2%; in data set [14], 50.7%; in the data set with KG-1a [30], 82.5%; in [32], 24.2%. Besides, in the data set with KG-1a [9], the viability at 20 µM came out at 2%. For the same compound, the Activity is listed as 0.21% in the data set on KG-1a [10]; 49% in the data set with KG-1a [11]; 9.13% in the data set with KG-1a [12]; 49.9% in the data set on KG-1a [15]; 1.05% in the data set on KG-1a [16]; 45% with KG-1a [19]. Besides, the Activity with KG-1a [21] was 44.4%; in the data set with KG-1a [23] it was 23.3%; with KG-1a [27], 6.54%; in the data set with KG-1a [28], 3.51%; in the data set with KG-1a [29], 4.71%; in the data set with KG-1a [34], 3.05%. Moreover, the viability at 50 µM with KG-1a [13] was 1.32%. The viability at 10 µM in [17] worked out at 6.5%; in data set [20], 0.46%; in the data set with KG-1a [25], 66.5%; in data set [31], 1.9%. The result in data set [18], in data set [24], in data set [33] and in data set [35] was Active. For the same compound, the solubility entry in data set [22] is “Insoluble”.
